# Literature values as cited in patent US20050220825A1, “Molecular dispersions of drospirenone” (priority 2004, published 2005).
# Experiments:
# [1] = within 30 minutes, hydrochloric acid solution pH about 1.0
# [2] = drospirenone in micronised form; background statement
compound,measurement,setting,value
C[C@]12CCC(=O)C=C1[C@@H]1C[C@@H]1[C@H]1[C@@H]3[C@@H]4C[C@@H]4[C@@]4(CCC(=O)O4)[C@@]3(C)CC[C@@H]12 [drospirenone],drospirenone degraded into its therapeutically inactive isomer,[1],~50%
same,drospirenone dissolved at 30 minutes after start of dissolution testing,[2],at least 70%
